Experimental findings from patent EP4813381A1, “PHARMACEUTICAL USE OF GUAIANE SESQUITERPENE DERIVATIVE” (Nanjing University Of Chinese Medicine, priority 2023, dated 2025) are described below.

Data set [1] can be described thus: Safety evaluation of Compound 20: 30-day oral gavage in mice (body weight, activity status, survival rate).
In the next data set the test system is CT26 cells. The class given is in vivo, BALB/c mice. As to conditions: CT26, oral 80 µmol/kg/day, 3 weeks.

In the case of `CN(C)C[C@@H]1C(=O)O[C@H]2[C@H]1CC[C@@]1(C)C[C@]13CC[C@@](C)(O)[C@H]23` [compound 20], the “effect on mouse survival rate” value in data set [1] (500 mg/kg and 1000 mg/kg, 30 days) is reported as “no significant effect on the survival rate”. Moreover, in data set [1] (500, 1000 mg/kg oral gavage), the “time to recover to normal activity after administration” value was 1 to 2 h. Also, in data set [1] (500, 1000 mg/kg oral gavage once daily, 30 days), the “effect on mouse activity status” value was “relatively reduced activity and lethargy after each administration”. Further, the “effect on mouse body weight” value in data set [1] (500, 1000 mg/kg oral gavage once daily, 30 days, female and male mice) is given as “no significant effect on the body weight”. In addition, the Survival rate in data set [1] (female C57BL/6 mice, 500 mg/kg oral gavage once daily for 30 days) came to 100%; in data set [1] (female C57BL/6 mice, 1000 mg/kg oral gavage once daily for 30 days) it was 100%; in data set [1] (male C57BL/6 mice, 500 mg/kg oral gavage once daily for 30 days) it was 100%; in data set [1] (male C57BL/6 mice, 1000 mg/kg oral gavage once daily for 30 days), 100.00%. The antitumor effects entry with CT26 cells is “tumor-inhibiting effects”.
